# US10765681B2 (Academia Sinica, priority 2016, dated 2020)
# Read-outs that look alike come from different tables or passages of the source.
# Experiments:
# H1975 lung cancer cells = assay: MTT assay, growth of H1975 lung cancer cells; format: cell-based; settings: Homo sapiens
# [1] = NCI-H1975, read-out: IC50 against the growth of H1975 lung cancer cells
# [2] = NCI-H1975, H1975, MTT, Table 2, read-out: IC50 against the growth of H1975 lung cancer cells
# [3] = NCI-H1975, H1975 lung cancer cell line, MTT, Table 3, read-out: IC50 H1975
Structure (SMILES),melting point,IC50 (H1975 lung cancer cells; [2]) [µM],further results
"CCOc1ccc(-c2nc(C#N)c3c(n2)n(-c2ccccc2OC)c(=O)n3C)cc1 [Compound 15a, 2-(4-Ethoxyphenyl)-9-(2-methoxyphenyl)-7-methyl-8-oxopurine-6-carbonitrile]",235 to 237 °C,–,–
"COC(=O)c1cccc(-n2c(=O)[nH]c3c(C(N)=O)nc(-c4ccc(OC)c(O)c4)nc32)c1 [Compound 5j, 2-(3-Hydroxy-4-methoxyphenyl)-9-(3-methoxycarbonylphenyl)-8-oxopurine-6-carboxamide]",333.3 to 334.3 °C,–,IC50 (H1975 lung cancer cells; [1]): 0.35 ± 0.01 µM
"CCOc1ccc(-c2nc(C(N)=O)c3[nH]c(=O)n(-c4cc(C(F)(F)F)cc(C(F)(F)F)c4)c3n2)cc1 [Compound 5m, 9-(3,5-Bis(trifluoromethyl)phenyl)-2-(4-ethoxyphenyl)-8-oxopurine-6-carboxamide]",288 to 290 °C,–,–
"CCCCCCCCCCCCNC(=O)c1cccc(-n2c(=O)[nH]c3c(C(N)=O)nc(-c4ccc(OCC)cc4)nc32)c1 [Compound 8b, 2-(4-Ethoxyphenyl)-9-(3-dodecylcarbamoyl)phenyl-8-oxopurine-6-carboxamide]",–,10.5 ± 0.25,–
C=CCn1c(=O)n(-c2ccccc2OC)c2nc(-c3ccc(OCC)cc3)nc(C#N)c21,144 to 146 °C,–,–
"CCOC(=O)Oc1nc2c(C#N)nc(-c3ccc(OCC)cc3)nc2n1-c1ccccc1OC [Compound 17a, 6-Cyano-2-(4-ethoxyphenyl)-9-(2-methoxyphenyl)purin-8-yl ethyl carbonate]",270 to 272 °C,–,–
"CCOc1ccc(-c2nc(C(N)=O)c3nc(SC)n(-c4ccccc4)c3n2)cc1 [Compound 11a, 2-(4-Ethoxyphenyl)-8-(methylthio)-9-phenylpurine-6-carboxamide]",309.7 to 311 °C (dec.),–,–
"CCCCCCNC(=O)c1cccc(-n2c(=O)[nH]c3c(C(N)=O)nc(-c4ccc(OCC)cc4)nc32)c1 [Compound 8a, 2-(4-Ethoxyphenyl)-9-(3-hexylcarbamoyl)phenyl-8-oxopurine-6-carboxamide]",–,0.49 ± 0.1,–
"CCOc1ccc(-c2nc(C(N)=O)c3[nH]c(=O)n(-c4cccc(C(=O)NCCCCCN=[N+]=[N-])c4)c3n2)cc1 [Compound 8c, 2-(4-Ethoxyphenyl)-9-[3-(5-azidopentylcarbamoyl)]phenyl-8-oxopurine-6-carboxamide]",–,0.39 ± 0.01,–
"CCOc1ccc(-c2nc(C(N)=O)c3nc(S)n(-c4ccccc4)c3n2)cc1 [Compound 10a, 2-(4-Ethoxyphenyl)-9-phenyl-8-mercaptopurine-6-carboxamide]",321.2 to 321.8 °C (dec.),–,–
"COc1ccc(-c2nc(C(=N)NO)c3[nH]c(=O)n(-c4ccccc4OC)c3n2)cc1O [Compound 14f, 2-(3-Hydroxy-4-methoxyphenyl)-9-(2-methoxyphenyl)-8-oxopurine-6-(N-hydroxy)carboximidamide]",226 to 228 °C,2.8,IC50 (H1975 lung cancer cells; [3]): 2.8 µM
"CCCCSc1nc2c(C(N)=O)nc(-c3ccc(OCC)cc3)nc2n1-c1ccccc1 [Compound 11b, 8-(Butylthio)-2-(4-ethoxyphenyl)-9-phenylpurine-6-carboxamide]",–,6.37 ± 0.51,–
"COc1ccc(-c2nc(C(N)=O)c3[nH]c(=O)n(-c4ccccc4OC)c3n2)cc1O [Compound 5n, 2-(3-Hydroxy-4-methoxyphenyl)-9-(2-methoxyphenyl)-8-oxopurine-6-carboxamide]",319 to 321 °C,–,–
"CCOc1ccc(-c2nc(C#N)c3nc(S)n(-c4ccccc4)c3n2)cc1 [Compound 27a, 2-(4-Ethoxyphenyl)-8-mercapto-9-phenylpurine-6-carboxnitrile]",278.5 to 280 °C,–,–
"CCOc1ccc(-c2nc(C(N)=O)c3nc(SCC(=O)OC)n(-c4ccccc4)c3n2)cc1 [Compound 11f, 2-(4-Ethoxyphenyl)-8-(methoxycarbonylmethylthio)-9-phenylpurine-6-carb oxamide]",–,2.1,–
"CCOc1ccc(-c2nc(C#N)c3[nH]c(=O)n(-c4cccc(C(=O)OC)c4)c3n2)cc1 [Compound 12c, 2-(4-Ethoxyphenyl)-9-(3-methoxycarbonylphenyl)-8-oxopurine-6-carbonitrile]",297 to 299 °C,–,–
"COc1ccccc1-n1c(=O)[nH]c2c(C(N)=O)nc(-c3ccc(O)cc3)nc21 [Compound 5b, 2-(4-Hydroxyphenyl)-9-(2-methoxyphenyl)-8-oxopurine-6-carboxamide]",370.2 to 371.8 °C,–,–
"CCOc1ccc(-c2nc(C(N)=O)c3nc(S)n(-c4cc(C(F)(F)F)cc(C(F)(F)F)c4)c3n2)cc1 [Compound 10c, 9-(3,5-Bis(trifluoromethyl)phenyl)-2-(4-ethoxyphenyl)-8-mercaptopurine-6-carboxamide]",299 to 301 °C,–,–
"CCOc1ccc(-c2nc(C(N)=O)c3[nH]c(=O)n(-c4cccc(C(=O)NCCCCCNC(=O)OC(C)(C)C)c4)c3n2)cc1 [Compound 8d, 2-(4-Ethoxyphenyl)-9-[3-(5-tert-butoxycarbonylamino)pentylcarbamoyl]phenyl-8-oxopurine-6-carboxamide]",–,15.5 ± 1.96,–

Structure (SMILES),melting point,IC50 (H1975 lung cancer cells; [2]) [µM],further results
"CCOc1ccc(-c2nc(C#N)c3nc(NC(=O)OC(C)(C)C)n(-c4ccccc4OC)c3n2)cc1 [Compound 34a, Tert-butyl (6-cyano-2-(4-ethoxyphenyl)-9-(2-methoxyphenyl)purin-8-yl)carbamate]",260 to 262 °C (dec.),–,–
"CCOc1ccc(-c2nc(C(N)=O)c3nc(SCC(=O)O)n(-c4ccccc4)c3n2)cc1 [Compound 11g, 8-(Carboxymethylthio)-2-(4-ethoxyphenyl)-9-phenylpurine-6-carboxamide]",–,3.94 ± 0.06,–
CCOc1ccc(-c2nc(C(N)=O)c3[nH]c(=O)n(-c4cccc(C(=O)NCCCCCNC(=O)CCCC[C@@H]5SC[C@@H]6NC(=O)N[C@@H]65)c4)c3n2)cc1 [Compound 8f],–,–,IC50 (H1975 lung cancer cells; [1]): 26.3 ± 0.31 µM
"CCOc1ccc(-c2nc(C(N)=O)c3nc(SCC(=O)N4CCN(C(=O)OC(C)(C)C)CC4)n(-c4ccccc4)c3n2)cc1 [Compound 11d, 2-(4-Ethoxyphenyl)-9-phenyl-8-{[(4-tert-butoxycarbonyl)piperazinocarbonyl]methylthio}purine-6-carb oxamide]",–,1.8,–
"COc1ccc(-c2nc(C(N)=O)c3nc(S)n(-c4ccccc4)c3n2)cc1O [Compound 10b, 2-(3-Hydroxy-4-methoxyphenyl)-8-mercapto-9-phenylpurine-6-carboxamide]",368.9 to 369.7 °C (dec.),–,IC50 (H1975 lung cancer cells; [1]): 0.24 ± 0.04 µM
"COc1ccc(-c2nc(C#N)c3[nH]c(=O)n(-c4ccccc4OC)c3n2)cc1O [Compound 12f, 2-(3-Hydroxy-4-methoxyphenyl)-9-(2-methoxyphenyl)-8-oxopurine-6-carbonitrile]",294 to 296 °C,25.8,IC50 (H1975 lung cancer cells; [3]): 25.8 µM
"C=CCn1oc(=O)nc1-c1nc(-c2ccc(OCC)cc2)nc2c1n(CC=C)c(=O)n2-c1ccccc1OC [Compound 25a, 2-Allyl-3-[7-allyl-2-(4-ethoxyphenyl)-9-(2-methoxyphenyl)-8-oxopurin-6-yl]-1,2,4-oxadiazol-5-one]",88 to 90 °C,–,–
"CCOc1ccc(-c2nc(C(N)=O)c3[nH]c(=O)n(-c4cccc(C(=O)O)c4)c3n2)cc1 [Compound 6e, 2-(4-Ethoxyphenyl)-9-(3-carboxy)phenyl-8-oxopurine-6-carboxamide]",–,7.91 ± 0.18,–
"CCOc1ccc(-c2nc(C#N)c3nc(SC(=O)OCc4ccccc4)n(-c4ccccc4)c3n2)cc1 [Compound 28a, 8-(Benzyloxycarbonylthio)-2-(4-ethoxyphenyl)-9-phenylpurine-6-carboxnitrile]",179.2 to 180.4 °C,–,–
"CCOc1ccc(-c2nc(C(N)=O)c3nc(SC(C)=O)n(-c4ccccc4)c3n2)cc1 [Compound 26a, 8-(Acetylthio)-2-(4-ethoxyphenyl)-9-phenylpurine-6-carboxamide]",–,41.6 ± 11.6,IC50 (H1975 lung cancer cells; [3]): 41.6 ± 11.6 µM
"CCOc1ccc(-c2nc(C(N)=O)c3[nH]c(=O)n(-c4cccc([N+](=O)[O-])c4)c3n2)cc1 [Compound 5l, 2-(4-Ethoxyphenyl)-9-(3-nitrophenyl)-8-oxopurine-6-carboxamide]",322.8 to 324.3 °C,–,–
"CCOc1ccc(-c2nc(C#N)c3nc(N4CCOCC4)n(-c4ccccc4OC)c3n2)cc1 [Compound 33b, 2-(4-Ethoxyphenyl)-9-(2-methoxyphenyl)-8-morpholinopurine-6-carbonitrile]",273 to 275 °C,–,IC50 (H1975 lung cancer cells; [3]): 74 µM
"CCOc1ccc(-c2nc(C#N)c3nc(N)n(-c4ccccc4OC)c3n2)cc1 [Compound 33a, 8-Amino-2-(4-ethoxyphenyl)-9-(2-methoxyphenyl)purine-6-carbonitrile]",297 to 299 °C,–,–
"CCOc1ccc(-c2nc(C(=N)NO)c3[nH]c(=O)n(-c4cccc(C(=O)OC)c4)c3n2)cc1 [Compound 14c, 2-(4-Ethoxyphenyl)-9-(3-methoxycarbonylphenyl)-8-oxopurine-6-(N-hydroxy)carboximidamide]",257 to 259 °C,–,–
"CCCCOc1ccc(-c2nc(C(N)=O)c3[nH]c(=O)n(-c4ccccc4OC)c3n2)cc1 [Compound 5c, 2-(4-Butoxyphenyl)-9-(2-methoxyphenyl)-8-oxopurine-6-carboxamide]",268.7 to 270.2 °C,4.66 ± 0.05,–
"CCOc1ccc(-c2nc(C#N)c3c(n2)n(-c2ccccc2OC)c(=O)n3Cc2ccccc2)cc1 [Compound 15c, 7-Benzyl-2-(4-ethoxyphenyl)-9-(2-methoxyphenyl)-8-oxopurine-6-carbonitrile]",164 to 166 °C,–,–
NC(=O)c1nc(-c2ccc(O)cc2)nc2c1nc(S)n2-c1ccccc1,361 to 363 °C,–,–
"CCOc1ccc(-c2nc(C#N)c3[nH]c(=O)n(-c4ccccc4OC)c3n2)cc1 [Compound 12a, 2-(4-Ethoxyphenyl)-9-(2-methoxyphenyl)-8-oxopurine-6-carbonitrile]",288 to 290 °C,–,–
